The results in this text go back to PubChem BioAssay (NCI).

Among the test systems are MDA-MB-435; MDA-N; NCI/ADR-RES ovarian; DLD-1 colon; LXFL 529 NSCLC; SNB-78 CNS; DMS 114 small cell lung.
Holding throughout (experiment): NCI tumour cell line growth inhibition, 48 h

Values joined by “and” are separate entries in the source; they are usually repeats but may differ in a detail not shown here. Equal entries are not always repeated.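 Five compound concentrations were applied to cells in 96-well plates for 48 hours; endpoints were derived by simple linear interpolation of the resulting dose-response curve. GI50 marks 50% less growth. TGI: concentration producing complete growth inhibition.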 Some results are limits rather than exact numbers.

With `Cc1ccc(OCC2OC(n3cnc4c(Br)nc(Br)nc43)CC2Oc2ccc(C)cc2)cc1` (stereo unspecified), the GI50 with MDA-MB-435 was 6.85 µM; with MDA-N, 6.2 µM; in the test with NCI/ADR-RES ovarian it was 20.4 µM. Besides, the TGI was 19.4 µM and 19.5 µM in the test on MDA-MB-435; 17.4 µM and 9.89 µM in the test on MDA-N; 53.5 µM and 29.5 µM in the test on NCI/ADR-RES ovarian.

In the case of `CCOCc1cc(=O)c2c(OC)cc3c(c2o1)CCC(C)(C)O3`, the TGI in the test with DLD-1 colon, in the test with LXFL 529 NSCLC and with SNB-78 CNS was above 100 µM in each case.

As to `COc1ccc(/C=C2\c3cc(OC)c(OC)c(OC)c3CC[C@@H]2O)cc1F`, the GI50 in the test on MDA-MB-435 is 0.0399 µM; in the test with NCI/ADR-RES ovarian, 0.196 µM. Besides, the TGI in the test on MDA-MB-435 is 0.235 µM; in the test with NCI/ADR-RES ovarian, 1.31 µM.

As to `CN(C)c1ccc(N=C2C=CC(=O)c3ccccc32)cc1`, in the test with MDA-MB-435, the GI50 is 1.85 µM and the TGI worked out at 3.58 µM. Also, in the test on NCI/ADR-RES ovarian, the GI50 was 3.95 µM and the TGI was 72.6 µM.

On to `COc1ccc(OC)c(/C=C/c2nc(SCc3ccccc3)n(-c3ccc(Cl)cc3)n2)c1`, for which, in the test on NCI/ADR-RES ovarian, the GI50 is 2.25 µM and the TGI is above 100 µM.

`CN(C)c1ccc2nc(CC(O)(C(F)(F)F)C(F)(F)F)ccc2c1`: the TGI in the test with MDA-MB-435, with MDA-N and in the test with NCI/ADR-RES ovarian was above 10 µM each time.

`O=C(O)CCC(C(=O)O)N1C(=O)C2C3CCC(C3)C2C1=O` (stereo unspecified): the TGI in the test on MDA-MB-435, in the test on MDA-N and in the test on NCI/ADR-RES ovarian was above 100 µM each time.

Consider `C/C(=N/N=C(N)N)c1ccc(NC(=O)Nc2ccc(/C(C)=N/N=C(N)N)cc2)cc1`, for which, in the test on MDA-MB-435, the GI50 was 16 µM and the TGI was above 83.8 µM. In addition, in the test with NCI/ADR-RES ovarian, the GI50 is 18 µM and the TGI is above 100 µM.

As for `CC1=C([Se]CC(OC(=O)[C@@H](CO)NC(=O)OC(C)(C)C)C(=O)NCCCCCC(=O)OCc2ccccc2)C(=O)c2ccccc2C1=O` (stereo partly specified), in the test on MDA-MB-435, the GI50 was 1.79 µM and the TGI stood at 3.49 µM.

For the compound `Cc1ccc(S(=O)(=O)Nc2ccc(-c3cc(-c4cccc(F)c4)c(C#N)c(N)n3)cc2)cc1`, in the test with MDA-MB-435, the GI50 was 2.02 µM and the TGI came out at 4.46 µM. Moreover, in the test with NCI/ADR-RES ovarian, the GI50 was 2.92 µM and the TGI was determined as 10.8 µM.

With `COc1cccc2c1C(=O)c1c(O)c3c(c(O)c1C2=O)CC(O)(C(=O)CO)CC3OC1CC(N)C(O)C(C)O1` (stereo unspecified), in the test on MDA-MB-435, the GI50 was 8.56 µg/mL and 67 µg/mL; the TGI is 75 µg/mL and > 150 µg/mL. Further, in the test with MDA-N, the GI50 was 37.5 µg/mL and 69.1 µg/mL; the TGI was 75 µg/mL and > 150 µg/mL.

Regarding `CN(C)CCNC(=O)NC[C@H]1CC[C@@H]2[C@H](O1)c1cc(C(F)(F)F)ccc1N[C@H]2c1ccccc1`, in the test on MDA-MB-435, the GI50 was 0.0278 µM and the TGI was 0.0718 µM. Further, in the test with NCI/ADR-RES ovarian, the GI50 is 5.99 µM and the TGI is above 100 µM.

Take `COC1=CC(=O)c2nc(Cl)ccc2C1=O`: in the test with MDA-MB-435, the GI50 is 1.79 µM and the TGI was determined as 3.36 µM. In the test with NCI/ADR-RES ovarian, the GI50 is 1.98 µM and the TGI was 4.24 µM.

As for `O=C(/C=C/OC(=O)c1cccc(Cl)c1)c1ccc(Cl)cc1`, in the test with MDA-MB-435, the GI50 was 44.6 µM and the TGI is above 100 µM. Also, in the test with NCI/ADR-RES ovarian, the GI50 was 63.9 µM and the TGI was above 100 µM.

On to `CN(C)CCOC(=O)Nc1nc2ccc(Sc3ccccc3)cc2[nH]1`, for which, in the test with MDA-MB-435, the GI50 was 0.432 µM and the TGI stood at 2.26 µM. In the test on NCI/ADR-RES ovarian, the GI50 is 2.44 µM and the TGI was 9.65 µM.

With `CCCCCC[C@H](C)NC(=O)c1ccc(Nc2nc3ccccc3c3occc23)cc1`, the GI50 with MDA-MB-435 is 2.9 µM; in the test on NCI/ADR-RES ovarian, 2.48 µM. Also, the TGI in the test with MDA-MB-435 turned out to be 15.3 µM; with NCI/ADR-RES ovarian, 6.99 µM.

For `O=C(O[C@H]1CCN2C[C@H]3C[C@H](CN4C(=O)CCC[C@H]34)[C@@H]2C1)c1ccc(O)cc1`, the TGI with MDA-MB-435 and in the test with MDA-N was above 100 µM each time.

`COc1cnc2c(c1)C(=O)c1c-2n(CCCN2CCNCC2)c(=O)c2cc([N+](=O)[O-])ccc12`: in the test on MDA-MB-435, the GI50 was 1.25 µM and the TGI worked out at 2.68 µM. In the test with NCI/ADR-RES ovarian, the GI50 was 1.11 µM and the TGI turned out to be 2.8 µM.

Take `COc1cc(/C=C/C(=O)c2c(C)nc3ccccc3c2C)ccc1OCCCN1CCN(C(=O)c2ccco2)CC1`: in the test with MDA-MB-435, the GI50 was 4.55 µM and the TGI turned out to be 19.8 µM. For the same compound, in the test on NCI/ADR-RES ovarian, the GI50 is 5.55 µM and the TGI is 45.2 µM.

`O=C1NC(c2cccc(OCc3ccccc3)c2)Nc2ccccc21` (stereo unspecified) had a TGI in the test with NCI/ADR-RES ovarian of 0.468 µM.

As to `COc1ccc2nc(NC(=O)C(=O)NNC(=O)c3ccncc3)sc2c1`, the TGI in the test on DLD-1 colon, in the test on DMS 114 small cell lung, in the test with LXFL 529 NSCLC and in the test with SNB-78 CNS was above 100 µM each time.

As to `Cc1nccc2c3ccc(OCc4cn(-c5ccc(Cl)cc5)nn4)cc3n(CC(C)C)c12`, in the test with MDA-MB-435, the GI50 was 3.38 µM and the TGI is above 33.3 µM. Besides, in the test on NCI/ADR-RES ovarian, the GI50 is 1.73 µM and the TGI came to 30.8 µM.

Turning to `O=c1c(Cl)cc2nc3ccccc3sc-2c1Cl`, the values for the TGI with MDA-MB-435 and with NCI/ADR-RES ovarian were 7.8 µM and 56.9 µM, respectively.

Regarding `CCCN1CCC(c2ccc(Nc3nc(Nc4cc(F)ccc4C(N)=O)c4cc[nH]c4n3)c(OC)c2)CC1`, in the test with MDA-MB-435, the GI50 was 0.852 µM and the TGI was 5.86 µM. Also, in the test with NCI/ADR-RES ovarian, the GI50 is 3.2 µM and the TGI worked out at 8.37 µM.

With `C/C(=N/Nc1nc(C)cc(=O)[nH]1)C(=O)O`, the TGI in the test on MDA-MB-435, with MDA-N and in the test on NCI/ADR-RES ovarian was above 100 µM in each case.

For the compound `COc1ccc(N(C)c2nc(Cl)nc3cnn(C)c23)cc1`, in the test with NCI/ADR-RES ovarian, the GI50 was below 0.01 µM and the TGI was above 100 µM.

For `C=CCc1c(O)c(C(=O)/C=C/c2ccccc2)c(OC)c2ccoc12`, in the test on MDA-MB-435, the GI50 is 2.78 µM and the TGI is 10.9 µM. Moreover, in the test on NCI/ADR-RES ovarian, the GI50 was 1.88 µM and the TGI is 4.91 µM.

For `COCc1c(-c2ccc(NC(=O)Nc3cc(C(F)(F)F)ccc3F)c(F)c2)c2c(N)ncnn2c1CN1CCOCC1`, the GI50 in the test with MDA-MB-435 is 1.93 µM; in the test with NCI/ADR-RES ovarian, 3.12 µM. The TGI with MDA-MB-435 and in the test with NCI/ADR-RES ovarian was above 10 µM throughout.

For the compound `COc1ccc2c(c1)C(=O)c1c-2c(Nc2cccc(C(C)=O)c2)nc2ccccc12`, the figures for the GI50 in the test with MDA-MB-435 and in the test with NCI/ADR-RES ovarian were 30.8 µM and 8.66 µM, respectively. Also, the TGI was above 100 µM in the test with MDA-MB-435 and 28.3 µM in the test on NCI/ADR-RES ovarian.
